Several values for one entry are separate records, joined by “and”; a condition that tells them apart may be missing. Identical values can stand only once. Like-named read-outs stand apart in the source and are kept apart here.
What was measured:
[1] = tested on: E. coli (MTCC 443); test: Minimum Inhibitory Concentration, micro-dilution broth; type: cell-based; conditions: 24 h, 37° C.
[2] = tested on: S. aureus (MTCC 737); test: as above; type: cell-based, Staphylococcus aureus; conditions: 37° C.
[3] = tested on: Enterococcus faecium (ATCC 19634); test: as above; type: cell-based; conditions: 24 h, 37° C., read-out: Minimum Inhibitory Concentration E. faceium
[4] = tested on: vancomycin resistant Enterococcus faecium (VRE) (ATCC 51559); test: as above; type: cell-based; conditions: 24 h, 37° C.
[5] = tested on: Klebsiella pneumoniae (ATCC 700603); test: as above; type: cell-based; conditions: 24 h, 37° C.
[6] = tested on: MRSA (ATCC 33591); test: as above; type: cell-based, methicillin-resistant S. aureus; conditions: 24 h, 37° C.
[7] = tested on: human Red Blood Cells; test: Haemolytic activity; conditions: for HC50: human RBCs, 1 h at 37° C.

Row | Compound | MIC [1] [µM] | MIC ([2]; 24 h) [µM] | MIC [3] [µM] | MIC [4] | Minimum Inhibitory Concentration K. pneumonie [5] [µM] | Minimum Inhibitory Concentration MRSA [6] | HC50 ([7]; Table 3) | hemolysis ([7]; at 1000 µM concentration) | HC50 ([7]; Table 6) [µM] | MIC ([3]; Enterococcus faecium, ATCC19634, 24 h) [µM] | MIC ([1]; Escherichia coli, MTCC443) [µM] | MIC ([2]; Staphylococcus aureus, MTCC737, 24 h) [µM]
1 | N^1-octyl-N^3-(Boc-^LAla)-N^1-[3-{(Boc-^LAla)amino}propyl]propane-1,3-diamine tris(trifluoroacetate) [Compound 19] | 343 | 313 | – | – | – | – | – | – | – | – | – | –
2 | N^1-octyl-N^3-(Boc-^LPhe)-N^1-[3-{(Boc-^LPhe)amino}propyl]propane-1,3-diamine tris(trifluoroacetate) [Compound 18] | 68 | 38 | – | – | – | – | – | – | – | – | – | –
3 | CCCCCCCCCCCCCCCC(=O)N(CCCNC(=O)[C@@H](N)CCCN)CCCNC(=O)[C@@H](N)CCCN.O=C(O)C(F)(F)F.O=C(O)C(F)(F)F [Compound 15, N,N-bis-[{3-(^LOrn)amino}propyl]hexadecanamide bis(trifluoroacetate)] | 5.2 | 6.4 | 3.2 | 3 µM | – | – | – | – | – | – | – | –
4 | CCCCCCCCCCCCCCCC(=O)N(CCCNC(=O)[C@@H](N)Cc1c[nH]c2ccccc12)CCCNC(=O)[C@@H](N)Cc1c[nH]c2ccccc12.O=C(O)C(F)(F)F.O=C(O)C(F)(F)F [Compound 8, N,N-bis-[{3-(^LTrp)amino}propyl]hexadecanamide bis(trifluoroacetate)] | >257 | 6.5 | 5.4 | 7 µM | – | – | – | – | – | – | – | –
5 | CCCCCCCCCCCC(=O)N(CCCNC(=O)[C@@H](N)CCCCN)CCCNC(=O)[C@@H](N)CCCCN.O=C(O)C(F)(F)F.O=C(O)C(F)(F)F [Compound 10, N,N-bis-[{3-(^LLys)amino}propyl]dodecanamide bis(trifluoroacetate)] | 14 | 37 | 32 | 30 µM | 40 | 45 µM | >1000 | did not show any hemolytic | – | – | – | –
6 | CCCCCCCCCCCCCC(=O)N(CCCNC(=O)CN)CCCNC(=O)CN.O=C(O)C(F)(F)F.O=C(O)C(F)(F)F [Compound 43, N,N-bis-[{3-(Gly)amido}propyl]tetradecanamide bis(trifluoroacetate)] | 16 | 12.5 | 8.8 | 13 µM | >365 | 10.8 µM | – | – | 157 | – | – | –
7 | CCCCCCCCCCCCCCCC(=O)N(CCCNC(=O)[C@H](N)CCCCN)CCCNC(=O)[C@H](N)CCCCN.O=C(O)C(F)(F)F.O=C(O)C(F)(F)F [Compound 17, N,N-bis-[{3-(^DLys)amino}propyl]hexadecanamide bis(trifluoroacetate)] | 4.8 | 3.9 | 2.7 | 2.2 µM | – | – | – | – | – | – | – | –
8 | CCCCCCCCCCCCCCCC(=O)N(CCCNC(=O)[C@@H](N)CC(C)C)CCCNC(=O)[C@@H](N)CC(C)C.O=C(O)C(F)(F)F.O=C(O)C(F)(F)F [Compound 56, N,N-bis-[{3-(^LLeu)amido}propyl]hexadecanamide bis(trifluoroacetate)] | 20 | 3.8 | 3.4 | 3.4 µM | 280 | 2.9 µM | – | – | 95 | – | – | –
9 | CCCCCCCCCCCCCCCCCC(=O)N(CCCNC(=O)[C@@H](N)CCCCN)CCCNC(=O)[C@@H](N)CCCCN.O=C(O)C(F)(F)F.O=C(O)C(F)(F)F [Compound 13, N,N-bis-[{3-(^LLys)amino}propyl]octadecanamide bis(trifluoroacetate)] | 8.4 | 7.7 | – | 2.2 µM | 7.5 | 14 µM | 108 | – | – | – | – | –
10 | NCCCC[C@H](N)C(=O)NCCCNCCCNC(=O)[C@@H](N)CCCCN.O=C(O)C(F)(F)F.O=C(O)C(F)(F)F.O=C(O)C(F)(F)F [Compound 23, N^1-^LLys-N^3-[{3-(^LLys)amino}propyl]propane-1,3-diamine tris(trifluoroacetate)] | >250 | >250 | >250 | >250 µM | >250 | >250 µM | – | – | – | – | – | –
11 | N[C@@H](Cc1ccccc1)C(=O)NCCCNCCCNC(=O)[C@@H](N)Cc1ccccc1.O=C(O)C(F)(F)F.O=C(O)C(F)(F)F.O=C(O)C(F)(F)F [Compound 22, N^1-^LPhe-N^3-[{3-(^LPhe)amino}propyl]propane-1,3-diamine tris(trifluoroacetate)] | >250 | >250 | >250 | >250 µM | >250 | >250 µM | – | – | – | – | – | –
12 | CCCCCCCCCCCCCC(=O)N(CCCNC(=O)[C@@H](N)CCCN)CCCNC(=O)[C@@H](N)CCCN.O=C(O)C(F)(F)F.O=C(O)C(F)(F)F [Compound 14, N,N-bis-[{3-(^LOrn)amino}propyl]tetradecanamide bis(trifluoroacetate)] | 6.6 | 7.9 | 5.2 | 5.3 µM | – | – | – | – | – | – | – | –
13 | N^1-octyl-N^3-(Boc-^LLys)-N^1-[3-{(Boc-^LLys)amino}propyl]propane-1,3-diamine tris(trifluoroacetate) [Compound 20] | 133 | 86 | – | – | – | – | – | – | – | – | – | –
14 | CCCCCCCCCCCCCC(=O)N(CCCNC(=O)[C@@H](N)Cc1c[nH]c2ccccc12)CCCNC(=O)[C@@H](N)Cc1c[nH]c2ccccc12.O=C(O)C(F)(F)F.O=C(O)C(F)(F)F [Compound 7, N,N-bis-[{3-(^LTrp)amino}propyl]tetradecanamide bis(trifluoroacetate)] | 39 | 2.5 | 2.5 | 2.7 µM | – | – | – | – | – | – | – | –
15 | CCCCCCCCCCCCCC(=O)N(CCCNC(=O)[C@@H](N)CC(C)C)CCCNC(=O)[C@@H](N)CC(C)C.O=C(O)C(F)(F)F.O=C(O)C(F)(F)F [Compound 55, N,N-bis-[{3-(^LLeu)amido}propyl]tetradecanamide bis(trifluoroacetate)] | 5.4 | 3.6 | 4.2 | – | – | – | – | – | 118 | – | – | –
16 | N[C@@H](Cc1ccccc1)C(=O)NCCCN(CCCNC(=O)[C@@H](N)Cc1ccccc1)C(=O)Cc1cccc2ccccc12 [Compound 21, N,N-bis-[{3-(^LPhe)amino}propyl]α-naphthylacetamide bis(trifluoroacetate)] | – | – | – | > 304 µM | – | – | – | – | – | > 304 | > 304 | > 304
17 | CCCCCCCCCCCCCCCC(=O)N(CCCNC(=O)[C@@H](N)CCCCN)CCCNC(=O)[C@@H](N)CCCCN.O=C(O)C(F)(F)F.O=C(O)C(F)(F)F [Compound 12, N,N-bis-[{3-(^LLys)amino}propyl]hexadecanamide bis(trifluoroacetate)] | 5.4 | – | 1.1 | 1 µM | 6.5 | 4.8 µM | 264 | – | – | – | – | –
18 | CCCCCCCCCCCCCCCC(=O)N(CCCNC(=O)[C@@H](N)[C@@H](C)CC)CCCNC(=O)[C@@H](N)[C@@H](C)CC.O=C(O)C(F)(F)F.O=C(O)C(F)(F)F [Compound 53, N,N-bis-[{3-(^LIle)amido}propyl]hexadecanamide bis(trifluoroacetate)] | 26 | 4 | 3 | 4.2 µM and 2.6 µM | – | 2.6 µM and 2.7 µM | – | – | 60 | – | – | –

Source: patent US20170144969A1, “ANT[…], METHOD FOR PRODUCTION AND USES THEREOF” (priority 2014, published 2017)
